# Reference: BindingDB's records for doi:10.1021/jm030424e (Isis Pharmaceuticals, 2004)
# Experiment: Inhibition HCV RNA replication
row,SMILES,EC50 [µM]
1,"CC[C@@]1(O)[C@H](O)[C@@H](CO)O[C@H]1n1cnc2c(N)ncnc21 [(2R,3R,4R,5R)-2-(6-amino-9H-purin-9-yl)-3-ethyl-5-(hydroxymethyl)oxolane-3,4-diol]",> 50
2,"C[C@@]1(O)[C@H](O)[C@@H](CO)O[C@H]1n1cnc2cncnc21 [(2R,3R,4R,5R)-5-(hydroxymethyl)-3-methyl-2-(9H-purin-9-yl)oxolane-3,4-diol]",> 50
3,"C[C@@]1(O)[C@H](O)[C@@H](CO)O[C@H]1n1cnc2c(=O)[nH]cnc21 [(2R,3R,4R,5R)-2-(6-hydroxy-9H-purin-9-yl)-5-(hydroxymethyl)-3-methyloxolane-3,4-diol]",> 50
4,C[C@@]1(O)[C@@H](CO)O[C@@H](n2cnc3c(N)ncnc32)[C@@H]1O,> 50
5,C[C@]1(O)[C@@H](CO)O[C@@H](n2cnc3c(N)ncnc32)[C@@H]1O,> 50
6,"C[C@]1(O)[C@H](O)[C@@H](CO)O[C@H]1n1cnc2c(N)ncnc21 [(2R,3S,4R,5R)-2-(6-amino-9H-purin-9-yl)-5-(hydroxymethyl)-3-methyloxolane-3,4-diol]",> 50
7,"Nc1nc2c(ncn2[C@@H]2O[C@H](CO)[C@@H](F)[C@H]2O)c(=O)[nH]1 [2-Amino-9-((2R,3S,4S,5R)-4-fluoro-3-hydroxy-5-hydroxymethyl-tetrahydro-furan-2-yl)-1,9-dihydro-purin-6-one]",> 50
8,Nc1nc2c(ncn2[C@@H]2O[C@H](CO)[C@H](O)[C@H]2O)c(=O)[nH]1,> 50
9,"Nc1nc2c(ncn2[C@@H]2O[C@H](CO)C[C@H]2O)c(=O)[nH]1 [2-Amino-9-((2R,3R,5S)-3-hydroxy-5-hydroxymethyl-tetrahydro-furan-2-yl)-1,9-dihydro-purin-6-one]",50
10,"CO[C@@H]1[C@H](O)[C@@H](CO)O[C@H]1n1cnc2c(=O)[nH]c(N)nc21 [2-Amino-9-((2R,3R,4R,5R)-4-hydroxy-5-hydroxymethyl-3-methoxy-tetrahydro-furan-2-yl)-1,9-dihydro-purin-6-one]",> 50
11,"C[C@@]1(O)[C@H](O)[C@@H](CO)O[C@H]1n1cnc2cnc(N)nc21 [(2R,3R,4R,5R)-2-(2-amino-9H-purin-9-yl)-5-(hydroxymethyl)-3-methyloxolane-3,4-diol]",> 50
12,"C[C@@]1(O)[C@H](O)[C@@H](CO)O[C@H]1n1cnc2c(N)ncnc21 [(2R,3R,4R,5R)-2-(6-amino-9H-purin-9-yl)-5-(hydroxymethyl)-3-methyl-tetrahydrofuran-3,4-diol]",0.3
13,"CO[C@]1(C)[C@H](O)[C@@H](CO)O[C@H]1n1cnc2c(N)ncnc21 [(2R,3R,4R,5R)-5-(6-amino-9H-purin-9-yl)-2-(hydroxymethyl)-4-methoxy-4-methyloxolan-3-ol]",> 50
14,"Nc1nc2c(ncn2[C@@H]2O[C@H](CO)[C@@H](O)[C@H]2F)c(=O)[nH]1 [2-Amino-9-((2R,3R,4R,5R)-3-fluoro-4-hydroxy-5-hydroxymethyl-tetrahydro-furan-2-yl)-1,9-dihydro-purin-6-one]",> 50
15,Nc1ncnc2c1ncn2[C@@H]1O[C@H](CO)[C@@H](O)[C@@H]1O [adenine arabinoside],> 50
16,CO[C@@H]1[C@H](O)[C@@H](CO)O[C@H]1n1cnc2c(N)ncnc21,> 50
17,"C[C@@]1(O)[C@H](O)[C@@H](CO)O[C@H]1n1cnc2c(N)nc(N)nc21 [(2R,3R,4R,5R)-2-(2,6-diamino-9H-purin-9-yl)-5-(hydroxymethyl)-3-methyloxolane-3,4-diol]",7
